Experimental data taken from ChEMBL document CHEMBL4184202, “New lignans attenuating cognitive deterioration of Aβ transgenic flies discovered in Acorus tatarinowii” (Bioorg Med Chem Lett, 2018).
Activity calls are given as the source filed them. No cut-off for these calls is given here.

tested on: Drosophila melanogaster; test: Antialzheimer disease activity in heterozygous transgenic Alzheimer's disease model fruit fly under control of elav-Gal4'C155 (P35*H29.3) expressing Abeta42 assessed as attenuation of cognitive deterioration by measuring increase in performance index by Pavlovian olfactory test; assay type: functional, organism-based

| SMILES | Activity |
| --- | --- |
| CC12CC3CC(C)(C1)CC(N)(C3)C2 | Active |
| COc1cc([C@H]2O[C@@H](c3ccc(OC)c(OC)c3)[C@H](C)[C@@H]2C)ccc1O | Active |
| COc1ccc(C(=O)[C@H]2CO[C@@H](c3ccc(OC)c(OC)c3)[C@@H]2C)cc1OC (racemic) | Active |
| C/C=C/c1cc(OC)c2c(c1)[C@@H](C)[C@H](c1ccc(OC)c(OC)c1)O2 (relative stereo) | Active |
| C/C=C/c1ccc(O[C@H](C)[C@@H](O)c2cc(OC)c(OC)c(OC)c2)c(OC)c1 (relative stereo) | Active |
